Key:
Format in all cases: cell-based
[1] = molecular target: T1, hAT1R (Homo sapiens, UniProt P30556); assay: BRET β-arrestin2 biosensor assay, higher receptor expression (hAT1R 5 ng/well), HEK293 cells; conditions: for EC50: High AT1R Expression
T1 sequence (P30556 1-359): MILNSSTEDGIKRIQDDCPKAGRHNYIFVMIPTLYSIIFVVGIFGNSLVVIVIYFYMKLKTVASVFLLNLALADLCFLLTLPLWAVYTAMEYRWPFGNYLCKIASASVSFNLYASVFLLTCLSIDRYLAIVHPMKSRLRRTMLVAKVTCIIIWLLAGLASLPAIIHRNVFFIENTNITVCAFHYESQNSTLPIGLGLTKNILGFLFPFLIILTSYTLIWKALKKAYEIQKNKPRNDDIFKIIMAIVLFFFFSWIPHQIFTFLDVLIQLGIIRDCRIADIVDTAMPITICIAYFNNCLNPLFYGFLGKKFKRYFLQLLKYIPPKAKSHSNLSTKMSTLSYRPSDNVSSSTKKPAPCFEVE

[2] = molecular target: T2, AGTR1 (Homo sapiens, UniProt P30556); assay: DiscoveRx β-arrestin2 recruitment assay (enzyme complementation, Pathunter CHO-K1 AGTR1 β-arrestin cell line); conditions: DiscoveRx β-arrestin2 recruitment; for DiscoveRx β-arrestin2 Ymax (%): maximal response
T2 construct: host or cells: Pathunter CHO-K1 AGTR1 β-arrestin cell line (CHO-K1)
T2 sequence (P30556 1-359): T1 sequence (P30556 1-359)
Procedure: In one aspect of the invention, signaling bias of compounds was assessed by comparing the relative activity of compounds to activate both the β-arrestin and Gq signaling pathways. In order to confirm signaling bias, compounds were studied in two different assay formats. DiscoveRx β-arrestin2 Recruitment and IP1 Assays β-arrestin2 recruitment to activated receptors can be assessed using an enzyme complementation method (Zhao, Jones et al. 2008). […] Cells (5000/well) were plated into 1536 well plates (Cellocoat plates, Greiner Bio One, Monroe, NC) 14-16 hours before each experiment in 20 μl DMEM/F12 medium (Thermo-Fisher Scientific, Carlsbad, CA) containing heat-inactivated 1% fetal bovine serum. Subsequently, the compounds of interest were added at varying concentrations to the wells in a volume of 200 nl and the cells incubated for 90 min at 37° C. The detection reagent (10 μl) was added to each well and the plates incubated at room temperature for 1 hour before measurement of chemiluminescence using an EnVision Multilabel Reader (Perkin-Elmer, Waltham, MA). The data are processed using Toolset for Runmaster QCMulti. Concentration-response curves are fitted and EC50s (agonist mode) and IC50s (antagonist mode) estimated using a 4-parameter logistic equation. Compound activities are reported as a relative percentage to the maximal effect of All in the assays.

[3] = molecular target: T2, AGTR1; assay: DiscoveRx IP1 accumulation assay (HTRF), agonist mode, Pathunter CHO-K1 AGTR1 β-arrestin cell line; conditions: for EC50: read-out: IP-1 EC50
Procedure: In one aspect of the invention, signaling bias of compounds was assessed by comparing the relative activity of compounds to activate both the β-arrestin and Gq signaling pathways. In order to confirm signaling bias, compounds were studied in two different assay formats.
DiscoveRx β-arrestin2 Recruitment and IP1 Assays
Gq activation can be assessed by measuring the accumulation of inositol phosphates (e.g. IP3, IP1) that are liberated following activation of phospholipase C by Gq (Thomsen, Frazer et al. 2005). In the current invention we have utilized the DiscoveRx Pathunter CHO-K1 AGTR1 β-arrestin cell line to also measure IP1 accumulation in response to compounds. IP1 accumulation was measured in both agonist and antagonist modes. In agonist mode, cells are plated as above 14-16 hours before the experiment. The medium is then removed and compounds at varying concentrations added in a final volume of 20 μl. The cells are incubated at 37° C. for 90 min. IP1 accumulation detected using a commercial HTRF assay according to manufacturer's instructions (Cisbio, Bedford, MA). Specifically, 4 μl of D2-conjugate solution (diluted 1:20 in Cisbio HTRF assay buffer) is added to each well, followed by the addition of 4 μl of anti-IP1 cryptate diluted 1:20 in HTRF assay buffer and the plates incubated for 20 min at room temperature. 14 μl from each well is measured using an Envision multi-label reader and data processed using Toolset for Runmaster QCMulti. Concentration-response curves are fitted and EC50s (agonist mode) and IC50s (antagonist mode) estimated using a 4-parameter logistic equation. Compound activities are reported as a relative percentage to the maximal effect of All in the assays.

Row | SMILES | BRET β-Arrestin2 High AT1R Expression Ymax (%) [1] [%] | EC50 [1] [nM] | EC50 [2] [nM] | DiscoveRx β-arrestin2 Ymax (%) [2] [%] | IP-1 Ymax (%) [3] [%] | EC50 [3] [nM]
1 | CCc1nc2c(C)cc(C)nc2n1Cc1ccc(-c2cc(Oc3ccc(C)cn3)ccc2-c2nn[nH]n2)cc1 [Example 248] | 79.5 | 14 | 26.5 | 18.2 | 6.8 | 81.7
2 | CCc1nc2c(C)cc(C)nc2n1Cc1ccc(-c2cc(-n3cccc3)ccc2-c2nn[nH]n2)cc1 [Example 90] | 77.7 | 27.7 | 55.4 | 23.2 | 6.0 | 39.8
3 | CCc1nc2c(C)cc(C)nc2n1Cc1ccc(-c2cc(N3CCC(F)(F)CC3)ccc2-c2nn[nH]n2)cc1 [Example 82, 3-((5′-(4,4-difluoropiperidin-1-yl)-2′-(2H-tetrazol-5-yl)-[1,1′-biphenyl]-4-yl)methyl)-2-ethyl-5,7-dimethyl-3H-imidazo[4,5-b]pyridine] | 49.6 | 142 | 95.7 | 16.8 |  | > 100000
4 | CCCCC1=NC2(CCCC2)C(=O)N1Cc1ccc(-c2cc(N3CCC[C@@H](C)C3)ccc2-c2nn[nH]n2)cc1 [Example 106] | 12.4 | 138 | 17.6 | 6.3 |  | > 100000
5 | CCc1nc2c(C)cc(C)nc2n1Cc1ccc(-c2cc(-c3cccn3C)ccc2-c2nn[nH]n2)cc1 [Example 22] | 57.1 | 33.7 | 10.3 | 14.8 | 2.4 | 34.4
6 | CCc1nc2c(C)cc(C)nc2n1Cc1ccc(-c2cc(Oc3ccccc3)ccc2C(=O)O)cc1 [Example 213, 4′-((2-Ethyl-5,7-dimethyl-3H-imidazo[4,5-b]pyridin-3-yl)methyl)-5-phenoxy-[1,1′-biphenyl]-2-carboxylic acid] | 89.9 | 92.9 | 215 | 27.3 | 6.9 | 862
7 | CCc1nc2c(C)cc(C)nc2n1Cc1ccc(-c2cc(Oc3ccccc3)cc(C)c2-c2nnn[nH]2)cc1 [Example 211, 2-Ethyl-5,7-dimethyl-3-((3′-methyl-5′-phenoxy-2′-(1H-tetrazol-5-yl)-[1,1′-biphenyl]-4-yl)methyl)-3H-imidazo[4,5-b]pyridine] | 80.2 | 67 | 96.8 | 21.2 | 8.7 | 235
8 | CCc1nc2c(C)cc(C)nc2n1Cc1ccc(-c2cc(C3CCCCC3)ccc2-c2nn[nH]n2)cc1 [Example 71, 3-((5′-Cyclohexyl-2′-(2H-tetrazol-5-yl)-[1,1′-biphenyl]-4-yl)methyl)-2-ethyl-5,7-dimethyl-3H-imidazo[4,5-b]pyridine] | 86.6 | 23.3 | 17.4 | 46.8 | 11.8 | 48600
9 | CCCCC1=NC2(CCCC2)C(=O)N1Cc1ccc(-c2cc(-c3cccc(F)c3F)ccc2-c2nn[nH]n2)cc1 [Example 135] | 94.8 | 28.7 | 13.7 | 38.6 |  | > 100000
10 | CCc1nc2c(C)cc(C)nc2n1Cc1ccc(-c2cc(-c3cccnc3)ccc2-c2nn[nH]n2)cc1 [Example 52] | 23.4 | 30.7 | 5.5 | 5.0 |  | > 1000

Source: patent US12037324B2, “Biarylmethyl heterocycles” (Université de Montréal, priority 2016, dated 2024)
